From patent US20040127718A1, “Substituted imidazoles” (Novo Nordisk A/S, priority 2001, published 2004)

Key:
H3 receptor [1] = biological target: T1, H3 receptor (Homo sapiens, UniProt Q9Y5N1); assay: Binding Assay III: [125I]-iodoproxifan binding to membranes of h-H3-HEK 293 clones; conditions: 30 pM [125I]-iodoproxifan, h-H3-HEK 293 membranes
T1 construct: expressed in transfected cells; pcDNA3)
Experimental: The H3 receptor was cloned by PCR and subcloned into the pcDNA3 expression vector. Cells stably expressing the H3 receptor were generated by transfecting the H3-expression vectors into HEK 293 cells and using G418 to select for H3 clones. The h-H3-HEK 293 clones were cultured in DMEM with glutamax, 10% FCS, 1% Pen/Strep and 1 mg/ml G 418 at 37° C. and 5% CO2. Before harvesting, the confluent cells were rinsed with PBS and incubated with Versene for approximately 5 minutes. The cells were flushed with PBS and DMEM and the cellsuspension collected in a tube and centrifuged for 5-10 min at 1500 rpm in a Heraeus Sepatech Megafuge 1.0. The pellet was resuspended in 10-20 vol. Hepes buffer (20 mM Hepes, 5 mM MgCl2, pH 7.1 (KOH)) and homogenized for 10-20 seconds using a Ultra-Turrax homogenizer. The homogenate was centrifuged for 30 min at 23 000 g. The pellet was resuspended in 5-10 ml Hepes buffer, homogenized 5-10 seconds with the Ultra-Turrax and centrifuged for 10 min at 23 000 g. Following this centrifugation step, the membrane pellet was resuspended in 2-4 ml Hepes buffer, homogenized with a syringe or teflonhomogenizer, and the protein concentration determined. The membranes were diluted to a protein concentration of 1-5 mg/ml in Hepes buffer, aliquoted and kept at −80° C. until use. […]

H3 receptor [2] = biological target: T1, H3 receptor; assay: Functional Assay: cAMP accumulation (Flash Plate) in HEK293 cells expressing the human H3 receptors; type: cell-based; conditions: cAMP accumulation stimulated with isoprenaline, h-H3-HEK 293 cells
Experimental: The ability of the compounds to interact with the histamine H3 receptor as agonists, inverse agonists and/or competitive antagonists, was determined by an in vitro functional assay utilizing membranes from HEK293 cell expressing the human H3 receptors.
The H3 receptor was cloned by PCR and subcloned into the pcDNA3 expression vector. Cells stably expressing the H3 receptor were generated by transfecting the H3-expression vectors into HEK 293 cells and using G418 to select for H3 clones. The h-H3-HEK 293 clones were cultured in DMEM with glutamax, 10% FCS, 1% Pen/Strep and 1 mg/ml G 418 at 37° C. and 5% CO2.
The H3 receptor expressing cells were washed once with phosphate buffered saline (PBS) and harvested using versene (GIBCO-BRL). PBS was added and the cells were centrifuged for 5 min at 188 g. The cell pellet was resuspended in stimulation buffer to a concentration of 1×10^6 cells/ml. cAMP accumulation was measured using the Flash Plate® cAMP assay (NEN™ Life Science Products). […] The plates were then sealed with plastic, shaken for 30 minutes, allowed to stand overnight, and finally the radioactivity was counted in the Cobra II auto gamma topcounter. EC50 values were calculated by non-linear regression analysis of dose response curves (6 points minimum) using GraphPad Prism. Kb values were calculated by Schild plot analysis.

T1 sequence (Q9Y5N1 whole entry): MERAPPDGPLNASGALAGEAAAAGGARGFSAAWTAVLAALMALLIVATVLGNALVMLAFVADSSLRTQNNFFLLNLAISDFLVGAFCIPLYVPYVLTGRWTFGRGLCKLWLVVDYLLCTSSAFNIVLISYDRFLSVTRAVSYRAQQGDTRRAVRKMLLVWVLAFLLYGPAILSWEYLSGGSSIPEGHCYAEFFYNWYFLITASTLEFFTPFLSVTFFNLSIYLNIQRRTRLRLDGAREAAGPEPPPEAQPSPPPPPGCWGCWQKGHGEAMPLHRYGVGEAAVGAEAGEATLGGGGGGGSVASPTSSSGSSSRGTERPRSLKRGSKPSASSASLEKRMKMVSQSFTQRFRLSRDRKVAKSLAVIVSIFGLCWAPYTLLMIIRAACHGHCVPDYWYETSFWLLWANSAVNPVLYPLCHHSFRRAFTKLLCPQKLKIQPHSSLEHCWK

Row | Structure (SMILES) | IC50 (H3 receptor [1]) [µM] | EC50 (H3 receptor [2]) [µM]
1 | Cc1[nH]cnc1CCCCOc1ccc2ccccc2c1 [Example 15/5, 5-Methyl-4-[4-(naphthalen-2-yloxy)-butyl]-1H-imidazole] | < 0.1 | < 0.1
2 | Cc1[nH]cnc1CCCOCc1cccc(I)c1 [Example 16/14, 4-[3-(3-Iodo-benzyloxy)-propyl]-5-methyl-1H-imidazole] | < 0.05 | < 0.05
